Some test systems named below: SK-OV-3; MOLT-4; MDA-N; OVCAR-5; UACC-62; HL-60; Hs-578T; HT-29; TK-10; RPMI-8226; EKVX; COLO 205; LOX IMVI; OVCAR-4; SW-620; SF-539; A498; 786-0; A549; UACC-257.
What all share (assay): NCI anticancer screen, dose series, 48 h

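Assay format: 96-well plates, 48-hour exposure. GI50 is the concentration that inhibits growth by half.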 Activity calls are given as the source filed them. Cut-off read from the data, not from the text of the source: active = GI50 up to about 1.1 µM and inactive = higher.

As for `C[C@H]1CCC/C=C/[C@@H]2C[C@H](OC3OC(CO)C(O)C(O)C3O)C[C@H]2[C@H](O)/C=C/C(=O)O1` (stereo not given in full), the GI50 in the experiment on SK-OV-3 is 40 µM (inactive); with MOLT-4 it was > 100 µM (inactive); in the experiment on MDA-N, 36.3 µM (inactive); with OVCAR-5, 37.3 µM (inactive); with UACC-62, 35.6 µM (inactive); in the experiment with HL-60 it was > 100 µM (inactive). Moreover, the GI50 in the experiment on Hs-578T is 30.1 µM (inactive); with HT-29, 33.2 µM (inactive); in the experiment with TK-10, 91.2 µM (inactive); in the experiment on RPMI-8226, 53.8 µM (inactive); in the experiment with EKVX, > 100 µM (inactive); with COLO 205, 17.2 µM (inactive). Also, the GI50 with LOX IMVI was 36.1 µM (inactive); with OVCAR-4, 78.5 µM (inactive); in the experiment on SW-620, 35.9 µM (inactive); in the experiment on SF-539 it was 32.1 µM (inactive); with A498, 25.5 µM (inactive); in the experiment with 786-0 it was 36.7 µM (inactive). The figures for the GI50 in the experiment with A549 and in the experiment on UACC-257 were 88.7 µM (inactive) and 26.5 µM (inactive), respectively.

For the compound `O=c1ccn(CC2(CO)CCC2)c(=O)[nH]1`, the GI50 with SK-OV-3, in the experiment with MOLT-4, in the experiment on MDA-N, in the experiment on OVCAR-5, in the experiment on UACC-62 and in the experiment with HL-60 was > 100 µM (inactive) throughout. Besides, the GI50 in the experiment on Hs-578T, with HT-29, with TK-10, in the experiment with RPMI-8226, with EKVX and with COLO 205 was > 100 µM (inactive) each time. Also, the GI50 in the experiment on LOX IMVI, in the experiment on OVCAR-4, in the experiment with SW-620, with SF-539, with A498 and in the experiment on 786-0 was > 100 µM (inactive) each time. For the same compound, the GI50 in the experiment with A549 and with UACC-257 was > 100 µM (inactive) each time.

As for `Cc1ccc(-c2cc(-c3ccc(Cl)cc3)nc(/N=C3\C(=O)N(CN4CCOCC4)c4ccc(Cl)cc43)n2)cc1`, the GI50 with SK-OV-3 is 35.6 µM (inactive); in the experiment with MOLT-4, 1.1 µM (active); with MDA-N, 32.6 µM (inactive); in the experiment on OVCAR-5, 26.4 µM (inactive); in the experiment on UACC-62, 19.8 µM (inactive); in the experiment on HL-60, 11.6 µM (inactive). In addition, the GI50 in the experiment on Hs-578T is 24.3 µM (inactive); in the experiment on HT-29 it was 16.3 µM (inactive); with TK-10 it was 26.4 µM (inactive); in the experiment with RPMI-8226, 0.0139 µM (active); in the experiment on EKVX, 15.2 µM (inactive); in the experiment on COLO 205 it was 20.2 µM (inactive). Besides, the GI50 with LOX IMVI was 31.8 µM (inactive); with OVCAR-4, 29.3 µM (inactive); in the experiment with SW-620 it was 6.49 µM (inactive); in the experiment on SF-539, 23 µM (inactive); in the experiment on A498, 20.5 µM (inactive); in the experiment with 786-0 it was 22 µM (inactive). The results for the GI50 in the experiment on A549 and with UACC-257 were 27.2 µM (inactive) and 33.3 µM (inactive), respectively.

Regarding `O=S1(=O)CS(=O)(=O)OCCO1`, the GI50 with SK-OV-3 is 28.5 µM (inactive); in the experiment on MOLT-4, 10.4 µM (inactive); with MDA-N, 33.8 µM (inactive); in the experiment with OVCAR-5 it was 85.5 µM (inactive); in the experiment on UACC-62, 6.43 µM (inactive); in the experiment with HL-60 it was 11.2 µM (inactive). In addition, the GI50 is 54.3 µM (inactive) with Hs-578T; 63.1 µM (inactive) in the experiment with HT-29; 82.8 µM (inactive) in the experiment on TK-10; 62.5 µM (inactive) with RPMI-8226; 81.8 µM (inactive) in the experiment on EKVX; 46.6 µM (inactive) in the experiment with COLO 205. For the same compound, the GI50 in the experiment with LOX IMVI was 16.8 µM (inactive); with OVCAR-4, 52.8 µM (inactive); in the experiment on SW-620, 40.9 µM (inactive); with SF-539, 11.3 µM (inactive); in the experiment on A498, 52.5 µM (inactive); in the experiment on 786-0 it was 10.9 µM (inactive). Besides, the values for the GI50 in the experiment on A549 and in the experiment with UACC-257 were 46.1 µM (inactive) and 50.5 µM (inactive), respectively.
